These results are taken from ChEMBL document CHEMBL4028866 (J Med Chem, 2017).

Data set [1] is filed under the species Rattus norvegicus. The settings on record: in vivo, po.
Data set [2] is described as follows: in vivo. Conditions: Sprague-Dawley, rat, iv, 1 mg/mg.
The nature of data set [3]: in vivo. The settings on record: Sprague-Dawley, rat, po, 10 mg/mg.
The nature of data set [4]: in vivo. Conditions: Sprague-Dawley, rat, iv, 1 mg/mg. This is another data set of the same source.
Data set [5] can be described thus: in vivo. Conditions: Sprague-Dawley, rat, po, 10 mg/mg. The source holds these as a separate data set.
A short description of data set [6]: in vivo. Conditions: Sprague-Dawley, rat, iv, 1 mg/mg. The source holds these as a separate data set.
A short description of data set [7]: in vivo. The settings on record: Sprague-Dawley, rat, po, 10 mg/mg. This is another data set of the same source.
Data set [8] is described as follows: in vivo. The settings on record: Sprague-Dawley, rat, iv, 1 mg/mg. This is another data set of the same source.
The nature of data set [9]: in vivo. Conditions: Sprague-Dawley, rat, po, 10 mg/mg. The source holds these as a separate data set.
Data set [10] can be described thus: in vivo. The settings on record: Sprague-Dawley, rat, iv, 1 mg/mg. This is another data set of the same source.
Data set [11] in a line: in vivo. The settings on record: Sprague-Dawley, rat, po, 10 mg/mg. This is another data set of the same source.
Data set [12] in a line: in vivo. Conditions: Sprague-Dawley, rat, iv, 1 mg/mg. This is another data set of the same source.
Data set [13] can be described thus: in vivo. The settings on record: Sprague-Dawley, rat, po, 10 mg/mg. This is another data set of the same source.
Data set [14] can be described thus: in vivo. Conditions: Sprague-Dawley, rat, iv, 1 mg/mg. This is another data set of the same source.
A short description of data set [15]: in vivo. Conditions: Sprague-Dawley, rat, po, 10 mg/mg. The source holds these as a separate data set.
Data set [16] can be described thus: in vivo. The settings on record: Sprague-Dawley, rat, po, 10 mg/mg. The source holds these as a separate data set.
A short description of data set [17]: in vivo. The settings on record: Sprague-Dawley, rat, iv, 1 mg/mg. This is another data set of the same source.

The AUC(0-t) is exposure summed from dosing to a finite time, without extrapolation to infinity. Broadly, the AUC(0-inf) is the area under the concentration-time curve extrapolated to infinity. A high value points to high exposure. Usually Cmax stands for the highest concentration seen after dosing. Usually Tmax stands for the time from dosing to the highest level. One may read the half-life as how long it takes for the measured level to halve. What is called clearance is a measure of how efficiently the substance is removed, as volume per time. Usually CL/F stands for clearance divided by bioavailability, as obtained after extravascular dosing. The MRT inf is the average time that molecules of a dose stay in the body. What is called bioavailability is the share of a dose that reaches the circulation, judged against a reference dose that is usually intravenous. A low value points to poor availability. As a reminder, the Vd is the apparent volume that relates the amount in the body to the concentration in plasma or blood.

Turning to `CC(C)(C)c1cc(NC(=O)Nc2ccc(-n3nc(-c4ccc(OCCN5CCOCC5)cc4)c4c(N)ncnc43)cc2)no1`, the Vz in data set [1] worked out at 0.06082 L/kg. The AUC(0-t) in data set [2] came out at 520 ng·h/mL; in [3], 978 ng·h/mL. In addition, the AUC(0-inf) in data set [4] came to 525 ng·h/mL; in data set [5] it was 991 ng·h/mL. Further, the Cmax was 839 ng/mL in [6] and 83.5 ng/mL in data set [7]. The values for the time of peak concentration (Tmax) in data set [8] and in data set [9] were 1.02 min and 6.66 h, respectively. The half-life in data set [10] was 3.34 h; in data set [11], 3.61 h. For the same molecule, the clearance in data set [12] is 0.0345 mL/min/kg. In addition, the CL/F in data set [13] was 0.193 mL/min/kg. Further, the MRT inf in data set [14] amounted to 3.13 h; in data set [15], 7.22 h. This molecule also displayed a bioavailability in [16] of 18.8%.

For the molecule `CC(C)(C)c1cc(NC(=O)Nc2ccc(-c3cn4c(n3)sc3cc(OCCN5CCOCC5)ccc34)cc2)no1` [QUIZARTINIB], the Vz in data set [1] is 4.078 L/kg. For the same molecule, the AUC(0-t) in [2] was determined as 1930 ng·h/mL; in data set [3], 14500 ng·h/mL. Moreover, the results for the AUC(0-inf) in data set [4] and in data set [5] were 1970 ng·h/mL and 15000 ng·h/mL, respectively. The results for the maximum concentration (Cmax) in [6] and in data set [7] were 728 ng/mL and 1140 ng/mL, respectively. In addition, the Tmax came out at 1.8 min in data set [8] and 8 h in data set [9]. The half-life in data set [10] was 4.38 h; in [11], 3.73 h. The molecule further came in with a Vd in [17] of 3.53 L/kg. Besides, the clearance in [12] was 9.35 mL/min/kg. This molecule had a CL/F in data set [13] of 12.6 mL/min/kg. Also, the MRT inf is 5.83 h in data set [14] and 10.1 h in data set [15]. Also, the bioavailability in data set [16] worked out at 75.9%.
